{
  "source": "PubChem BioAssay (NCI)",
  "experiment_in_all_cases": "NCI anticancer screen, dose series, 48 h",
  "key": {"IGROV1 ovarian": {"tested_on": "IGROV1 ovarian"}, "SF-295 CNS": {"tested_on": "SF-295 CNS"}, "CAKI-1 renal": {"tested_on": "CAKI-1 renal"}, "NCI-H226 lung": {"tested_on": "NCI-H226 lung"}, "BT-549 breast": {"tested_on": "BT-549 breast"}, "MOLT-4 leukemia": {"tested_on": "MOLT-4 leukemia"}, "NCI-H460 lung": {"tested_on": "NCI-H460 lung"}, "HS 578T breast": {"tested_on": "HS 578T breast"}, "HL-60(TB) leukemia": {"tested_on": "HL-60(TB) leukemia"}, "UACC-62 melanoma": {"tested_on": "UACC-62 melanoma"}, "SF-539 CNS": {"tested_on": "SF-539 CNS"}, "KM12 colon": {"tested_on": "KM12 colon"}, "T-47D breast": {"tested_on": "T-47D breast"}, "HOP-62 NSCLC": {"tested_on": "HOP-62 NSCLC"}, "HCT-116 colon": {"tested_on": "HCT-116 colon"}, "MDA-MB-231 breast": {"tested_on": "MDA-MB-231 breast"}, "SK-MEL-5 melanoma": {"tested_on": "SK-MEL-5 melanoma"}, "MCF7 breast": {"tested_on": "MCF7 breast"}, "NCI-H522 lung": {"tested_on": "NCI-H522 lung"}, "SR leukemia": {"tested_on": "SR leukemia"}, "DU-145 prostate": {"tested_on": "DU-145 prostate"}, "SN12C renal": {"tested_on": "SN12C renal"}, "CCRF-CEM leukemia": {"tested_on": "CCRF-CEM leukemia"}, "SK-MEL-2 melanoma": {"tested_on": "SK-MEL-2 melanoma"}, "A549 NSCLC": {"tested_on": "A549 NSCLC"}, "MDA-MB-468 breast": {"tested_on": "MDA-MB-468 breast"}, "SNB-19 CNS": {"tested_on": "SNB-19 CNS"}, "TK-10 renal": {"tested_on": "TK-10 renal"}, "ACHN renal": {"tested_on": "ACHN renal"}, "EKVX NSCLC": {"tested_on": "EKVX NSCLC"}},
  "note": "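These data come from cells grown in 96-well plates and exposed to compound for 48 hours at five concentrations. The concentration for 50% growth inhibition is given as GI50. TGI denotes the concentration required for complete inhibition of growth.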",
  "data": [
    {"smiles": "CCCCCCn1c(O)c(N=Nc2nc(-c3cc4ccccc4oc3=O)cs2)c2ccccc21", "values": [
      {"measurement": "TGI", "setting": "IGROV1 ovarian", "value": 30.9, "unit": "µM"},
      {"measurement": "GI50", "setting": "SF-295 CNS", "value": 14.4, "unit": "µM"},
      {"measurement": "TGI", "setting": "SF-295 CNS", "value": 27.5, "unit": "µM"},
      {"measurement": "GI50", "setting": "CAKI-1 renal", "value": 17.7, "unit": "µM"},
      {"measurement": "TGI", "setting": "CAKI-1 renal", "value": 32.2, "unit": "µM"},
      {"measurement": "GI50", "setting": "NCI-H226 lung", "value": 14.9, "unit": "µM"},
      {"measurement": "TGI", "setting": "NCI-H226 lung", "value": 28.1, "unit": "µM"},
      {"measurement": "GI50", "setting": "BT-549 breast", "value": 15.7, "unit": "µM"},
      {"measurement": "TGI", "setting": "BT-549 breast", "value": 29.2, "unit": "µM"},
      {"measurement": "GI50", "setting": "MOLT-4 leukemia", "value": 15.8, "unit": "µM"},
      {"measurement": "TGI", "setting": "MOLT-4 leukemia", "value": 42.6, "unit": "µM"},
      {"measurement": "GI50", "setting": "NCI-H460 lung", "value": 15.1, "unit": "µM"},
      {"measurement": "TGI", "setting": "NCI-H460 lung", "value": 30.1, "unit": "µM"},
      {"measurement": "GI50", "setting": "HS 578T breast", "value": 7.91, "unit": "µM"},
      {"measurement": "TGI", "setting": "HS 578T breast", "value": 52.3, "unit": "µM"},
      {"measurement": "GI50", "setting": "HL-60(TB) leukemia", "value": 18.8, "unit": "µM"},
      {"measurement": "TGI", "setting": "HL-60(TB) leukemia", "value": 45.1, "unit": "µM"},
      {"measurement": "GI50", "setting": "UACC-62 melanoma", "value": 13.7, "unit": "µM"},
      {"measurement": "TGI", "setting": "UACC-62 melanoma", "value": 26.5, "unit": "µM"},
      {"measurement": "GI50", "setting": "SF-539 CNS", "value": 16, "unit": "µM"},
      {"measurement": "TGI", "setting": "SF-539 CNS", "value": 29.5, "unit": "µM"},
      {"measurement": "GI50", "setting": "KM12 colon", "value": 17.9, "unit": "µM"},
      {"measurement": "TGI", "setting": "KM12 colon", "value": 33.8, "unit": "µM"},
      {"measurement": "GI50", "setting": "T-47D breast", "value": 12.7, "unit": "µM"},
      {"measurement": "TGI", "setting": "T-47D breast", "value": 32.5, "unit": "µM"},
      {"measurement": "GI50", "setting": "HOP-62 NSCLC", "value": 16.2, "unit": "µM"},
      {"measurement": "TGI", "setting": "HOP-62 NSCLC", "value": 30.3, "unit": "µM"},
      {"measurement": "GI50", "setting": "HCT-116 colon", "value": 11.1, "unit": "µM"},
      {"measurement": "TGI", "setting": "HCT-116 colon", "value": 23.4, "unit": "µM"},
      {"measurement": "GI50", "setting": "MDA-MB-231 breast", "value": 11.6, "unit": "µM"},
      {"measurement": "TGI", "setting": "MDA-MB-231 breast", "value": 23.8, "unit": "µM"},
      {"measurement": "GI50", "setting": "SK-MEL-5 melanoma", "value": 9.02, "unit": "µM"},
      {"measurement": "TGI", "setting": "SK-MEL-5 melanoma", "value": 21.1, "unit": "µM"},
      {"measurement": "GI50", "setting": "MCF7 breast", "value": 12.1, "unit": "µM"},
      {"measurement": "TGI", "setting": "MCF7 breast", "value": 25.9, "unit": "µM"},
      {"measurement": "GI50", "setting": "NCI-H522 lung", "value": 4.1, "unit": "µM"},
      {"measurement": "TGI", "setting": "NCI-H522 lung", "value": 14, "unit": "µM"},
      {"measurement": "GI50", "setting": "SR leukemia", "value": 7.19, "unit": "µM"},
      {"measurement": "TGI", "setting": "SR leukemia", "value": 34.8, "unit": "µM"},
      {"measurement": "GI50", "setting": "DU-145 prostate", "value": 16.3, "unit": "µM"},
      {"measurement": "TGI", "setting": "DU-145 prostate", "value": 30.1, "unit": "µM"},
      {"measurement": "GI50", "setting": "SN12C renal", "value": 17.4, "unit": "µM"},
      {"measurement": "TGI", "setting": "SN12C renal", "value": 31.2, "unit": "µM"},
      {"measurement": "GI50", "setting": "CCRF-CEM leukemia", "value": 10.4, "unit": "µM"},
      {"measurement": "TGI", "setting": "CCRF-CEM leukemia", "value": 44.8, "unit": "µM"},
      {"measurement": "GI50", "setting": "SK-MEL-2 melanoma", "value": 18.3, "unit": "µM"},
      {"measurement": "TGI", "setting": "SK-MEL-2 melanoma", "value": 32.4, "unit": "µM"},
      {"measurement": "GI50", "setting": "A549 NSCLC", "value": 13.6, "unit": "µM"},
      {"measurement": "TGI", "setting": "A549 NSCLC", "value": 27.7, "unit": "µM"},
      {"measurement": "GI50", "setting": "MDA-MB-468 breast", "value": 15.7, "unit": "µM"},
      {"measurement": "TGI", "setting": "MDA-MB-468 breast", "value": 29.7, "unit": "µM"},
      {"measurement": "GI50", "setting": "SNB-19 CNS", "value": 15.1, "unit": "µM"},
      {"measurement": "TGI", "setting": "SNB-19 CNS", "value": 28.4, "unit": "µM"},
      {"measurement": "GI50", "setting": "TK-10 renal", "value": 19.4, "unit": "µM"},
      {"measurement": "TGI", "setting": "TK-10 renal", "value": 33.6, "unit": "µM"},
      {"measurement": "GI50", "setting": "ACHN renal", "value": 16.7, "unit": "µM"},
      {"measurement": "TGI", "setting": "ACHN renal", "value": 30.3, "unit": "µM"},
      {"measurement": "GI50", "setting": "EKVX NSCLC", "value": 9.61, "unit": "µM"},
      {"measurement": "TGI", "setting": "EKVX NSCLC", "value": 21.4, "unit": "µM"}
    ]}
  ]
}
